Source: paper PMC9382192, “Combined treatment with epigenetic agents enhances anti-tumor activity of MAGE-D4 peptide-specific T cells by upregulating the MAGE-D4 expression in glioma” (Frontiers in Oncology, 2022)

Tests used:
U87 glioma tissues = experiment: CD8 immunohistochemistry of xenograft tissue; format: in vivo, BALB/C nude female mice; details: MAGE-D4-specific T cells in TSA-treated U87 glioma tissues, IHC
Method: Eighteen BALB/C nude female mice aged 4 weeks were provided by the Guangxi Experimental Animal Center. The mice were placed in a light-controlled room at 24 ± 1 °C (light: 7:00–19:00 h, dark: 19:00–7:00 h) and fed under specific pathogen-free conditions. All protocols followed the guidelines of the National Research Council for the Care and Use of Laboratory Animals and were approved by the Animal Ethics Committee of Guangxi Medical University. To develop a xenograft model, 4 × 10^6 U87 cells were inoculated into the flanks of the mice subcutaneously. Two weeks later, mice simultaneously received intraperitoneal peritumorally injections of TSA (0.5 mg/kg) and 1 × 10^7 peptides loaded on CD8^+ T cells, respectively. Every […], tumor volumes were measured simultaneously with a caliper. Mice were sacrificed by euthanasia when visibly ill. Mice injected with negative peptide-induced CTLs and CTLs without peptides were included as controls. The tumor volumes were calculated using the following formula: tumor volume = [(width2 × length)/2]. Immunochemistry was conducted to detect expressions of CD8 on tissue sections. […] Integrated optical density (IOD) was measured by image-Pro Plus software (version 6.0, Media Cybernetics, MD, USA) for images of five randomly selected regions from a slice. The results were expressed as average optical density (AOD = IOD/area).

IFN-γ [1] = experiment: IFN-γ ELISA of DC/T-cell co-culture supernatant; format: cell-based, human; details: 72 h co-culture supernatant, compared to T cells alone
Method: Production of cytokines in the supernatants was determined using commercially available ELISA kits (Cloud-Clone Corporation, Wuhan, China) according to the protocol of the manufacturer. Approximately 50 μl of supernatant and different concentration standards were added and mixed with 100 μl of horseradish peroxidase (HRP) labeled detection antibody against a 96-well plate, respectively, except for the blank control. After incubation at 37°C for 60 min, we washed the plate five times. Add substrate A and substrate B 50 μl respectively, incubate for 15min in a 37°C incubator in dark. Then, 50 μl of stop solution was added and a 450 nm absorbance value (OD value) was measured within 15 min. The regression equation of the standard curve is calculated according to the concentration of the standard substance and the OD value, and the corresponding sample concentration is calculated on the basis of the regression equation.

U87 = experiment: LDH cytotoxicity assay, U87; format: cell-based, human; details: TSA-treated U87, E:T 50:1, 4 h; compared to T cell alone and NC-T cell groups
Method: The human glioma cell lines (U87-MG and U251) were obtained from the Cell Bank of Type Culture Collection of the Chinese Academy of Science (Shanghai, China). Decitabine (DAC, CAS No. A3656), valproic acid (VPA, CAS No. 99-66-1), and trichostatin A (TSA, CAS No. 58880-19-6) were purchased from Sigma-Aldrich Corporation (St. Louis, MO, USA). DAC and TSA were dissolved in DMSO to a concentration of 10 mM. Aliquots were stored at −80°C and diluted with media before being used. […]
(§1) The cytotoxic activity of MAGE-D4 peptide-specific CTLs to glioma cells was determined according to the instructions of the manufacturers by our published method ([31]). […] Four hours later, suspended cells were collected for CD107a flow cytometry, meanwhile, the supernatant was collected and analyzed with granzyme A and perforin ELISA kit (Cloud-Clone Corporation, Wuhan, China) at 450 nm, and the LDH kit (Promega, USA) at 490 nm. The percentage of specific lysis was calculated using the following formula: [(experimental release − spontaneous release)/(maximum release − spontaneous release)] × 100. […] Then, the cytotoxicity assay was measured and calculated as mentioned above.

U251 = experiment: LDH cytotoxicity assay and HLA block, U251; format: cell-based, human
Method: The human glioma cell lines (U87-MG and U251) were obtained from the Cell Bank of Type Culture Collection of the Chinese Academy of Science (Shanghai, China). Decitabine (DAC, CAS No. A3656), valproic acid (VPA, CAS No. 99-66-1), and trichostatin A (TSA, CAS No. 58880-19-6) were purchased from Sigma-Aldrich Corporation (St. Louis, MO, USA). DAC and TSA were dissolved in DMSO to a concentration of 10 mM. Aliquots were stored at −80°C and diluted with media before being used. Drug treatments were divided into seven groups: (1) DAC group: cells were cultured in medium on the presence of 1 μM DAC for 120 h; (2) VPA group: cells were grown in medium containing 1 mM VPA for 120 h; (3) TSA group: cells were cultured in medium supplemented with 1 μM TSA for 24 h; (4) D + V group: cells were cultured with 1 μM DAC and 1 mM VPA for 120 h; (5) D + T group: cells were cultured with 1 μM DAC for 120 h, followed by 1 μM TSA for 24 h; (6) Control group: cells were cultured with 0.09% DMSO, which is the highest concentration of DMSO used in this study in consideration of the potential toxicity of DMSO to living cells. Human recombinant interleukin (IL) IL-2, IL-4, and human recombinant granulocyte/macrophage colony-stimulating factor (GM-CSF) were purchased from R&D Systems.
as §1

IFN-γ [2] = experiment: IFN-γ ELISPOT; format: cell-based, human; details: 1 × 10^6 T cells/well stimulated by peptide-pulsed DCs, 20 h
Method: The number of T cells secreting IFN-γ was measured by ELISPOT using Human IFN-γ precoated ELISPOT kit (Dakewe, Beijing, China). Briefly, RPMI 1640 complete medium was added for 5–10 min to activate the pre-coated plate. T cells (1 × 10^6/well) stimulated by peptide-pulsed DCs were added to each well and incubated in a 37°C 5% CO2 incubator for 20 h. After lysis in cold water, the biotin-labeled antibody was added and incubated at 37°C for 1 h, then the enzyme-labeled avidin was added and incubated at 37°C for 1 h. The spots present in each well were scanned using the CTL ELISPOT analyzer and counted using the ImmunoSpot Professional Software.

T cells = experiment: CFSE lymphocyte proliferation assay; format: cell-based, human; details: T cells with peptide-pulsed DCs, 96 h, flow cytometry
Method: CFSE assay was used to further detect the proliferation of T cells stimulated by peptide-pulsed DCs. The cells were suspended at 10^6/ml with RPMI1640 and added CFSE (5 μM/ml), then incubated at room temperature for 20 min. Fetal bovine serum (FBS, Gbico, USA) was added and incubated for 5 min to terminate the reaction, washed with PBS twice. Then, the peptide-incubated DC was added, incubated for 96 h, and performed flow cytometry analysis.

Row | Compound | CD8+ T-cell infiltration in tumor tissue (U87 glioma tissues) | IFN-γ secretion by T cells (ELISA) (IFN-γ [1]) | cytotoxicity of peptide-specific T cells (specific lysis, LDH) (U87) | cytotoxicity of peptide-specific T cells (specific lysis, LDH) (U251; DAC + TSA-treated U251, E:T 50:1, 4 h) | killing efficiency after HLA I block (U251; target cells pre-incubated with HLA-ABC antibody 50 μg/ml, 37°C 40 min, versus groups without anti-HLA antibodies, Figure 6I) | number of IFN-γ secreting T cells (ELISPOT) (IFN-γ [2]) | proliferation index (CFSE) (T cells; Figure 4B inset bottom left) | percentage of cells that divided at least once (CFSE) (T cells; Figure 4B inset top left)
1 | CC(/C=C/C(=O)NO)=C\[C@@H](C)C(=O)c1ccc(N(C)C)cc1 [TSA, trichostatin A] | highest degree |  |  |  |  |  |  | 
2 | CLPPPNVIL [Peptide P8] |  | high levels of IFN-γ | higher cytotoxicity | cytotoxicity on the DAC + TSA-treated U251 cells with statistical significance | significantly decreased | more than that in others | highest | highest
